Laboratory results from publication PMC9795464 (JACS Au, 2022).

Key:
[1] = test system: BDL-induced liver injury in mice; assay: Bile duct ligation; format: in vivo
FXR = biological target: T1, FXR (Homo sapiens, UniProt Q96RI1); assay: AlphaScreen corepressor NCoR-2 recruitment assay; format: biochemical; conditions: Figure 1I
T1 sequence (Q96RI1 243-472 isoform Q96RI1-2): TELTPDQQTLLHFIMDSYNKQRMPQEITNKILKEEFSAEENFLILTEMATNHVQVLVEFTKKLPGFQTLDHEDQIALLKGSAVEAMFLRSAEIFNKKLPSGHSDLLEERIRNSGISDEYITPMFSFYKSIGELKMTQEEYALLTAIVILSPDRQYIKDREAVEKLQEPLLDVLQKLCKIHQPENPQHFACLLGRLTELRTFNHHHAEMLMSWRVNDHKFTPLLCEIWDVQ

[2] = test system: inflammation, fibrosis and FXR target genes in liver; assay: Liver mRNA levels by qPCR in BDL mice; format: in vivo
[3] = 3 mg/kg p.o. once daily day 7 to 14 after BDL

Compound: CC[C@H]1[C@@H](O)[C@@H]2[C@H](CC[C@]3(C)[C@@H]([C@H](C)CCC(=O)O)CC[C@@H]23)[C@@]2(C)CC[C@@H](O)C[C@@H]12 [OCA, Obeticholic acid]
- collagen deposition (Sirius red) compared to the vehicle group [1, 3]: smaller amount
- inflammatory infiltrates (H&E) compared to the vehicle group [1, 3]: lower level
- BDL-induced increase in total bilirubin level in the serum ([1]; once daily day 7 to 14 after BDL): reversed
- binding affinity between FXR and NCoR2 (FXR): decreased the binding affinity
- liver mRNA expression of inflammatory biomarkers IL-6, IL-1β, iNOS, COX2 [2]: significantly decreased
